From patent US6943194B1, “Synthesis of phenstatin and prodrugs thereof” (Arizona Board of Regents, acting for and on behalf of …, priority 1998, dated 2005)
Like-named read-outs stand apart in the source and are kept apart here.

Experiments:
tubulin = test: Inhibition of [3H]colchicine binding to tubulin; parameters: species or system bovine; conditions: for Inhibition of colchicine binding % inhibition: 1.0 μM tubulin, 5.0 μM [3H]colchicine, 5.0 μM inhibitor, 10 min at 37° C.
Description: Reaction mixtures contained 0.1 mg/mL (1.0 μM) tubulin, 5.0 μM [3H]colchicine, and 5.0 μM inhibitor and were incubated for 10 min at 37° C.

[1] = tested on: NCI 60 Cell-Line Human Tumor Screen; test: NCI 60 cell-line human tumor screen; type: cell-based; conditions: read-out: Mean Panel GI50 (±S.D)
Source text: (§1) Compounds 3b, 3d, 1d, and 4a-f were comparatively evaluated in the NCI 60 cell-line human tumor screen (Boyd, Status of the NCI preclinical antitumor drug discovery screen. Implications for selection of new agents for clinical trial, CANCER: Principles and Practices of Oncology Updates, DeVita, et al. (Eds.), Lippincott: Philadelphia, 1989; Vol. 10, No. 3, pp. 1-12; Boyd, The Future of New Drug Development. Section I. Introduction to Cancer Therapy, Current Therapy in Oncology, Niederhuber, (Ed.), B. C. Decker, Inc.: Philadelphia, 1993; pp. 11-22; Boyd, et al., Data display and analysis strategies from NCI disease-oriented in vitro antitumor drug screen. In Cytotoxic Anticancer Drugs: Models and Concepts for Drug Discovery and Development, Valeriote, et al. (Eds.), Kluwer Academic Publishers: Amsterdam, 1992; pp. 11-34; Stinson, et al., Morphological and Immunocytochemical Characteristics of Human Tumor Cell Lines for Use in a Disease-Oriented Anticancer Drug Screen, Anticancer Res. 1992, 12,-1035-1054; Boyd, et al., Some Practical Considerations and Applications of the NCI in vitro Drug Discovery Screen, Drug Dev. Res. 1995, 34, 91-109).

[2] = tested on: P388 Lymphocytic Leukemia Cell Line; test: Murine P388 lymphocytic leukemia cell line growth inhibition; type: cell-based
OVCAR-3 = test: Human cancer cell growth inhibition, ovarian OVCAR-3; type: cell-based
SF-295 = test: Human cancer cell growth inhibition, CNS SF-295; type: cell-based
A498 = test: Human cancer cell growth inhibition, renal A498; type: cell-based
NCI-H460 = test: Human cancer cell growth inhibition, lung-NSC NCI-H460; type: cell-based
KM20L2 = test: Human cancer cell growth inhibition, colon KM20L2; type: cell-based
SK-MEL-5 = test: Human cancer cell growth inhibition, melanoma SK-MEL-5; type: cell-based
bovine brain tubulin = test: Inhibition of tubulin polymerization; type: biochemical; conditions: for IC50: 10 μM tubulin, extent of assembly after 20 min at 30° C., read-out: Inhibition of tubulin polymerization IC50, μM ± SD; for activity against tubulin / in inhibiting assembly (in words): purified tubulin
Description: Electrophoretically homogeneous bovine brain tubulin was purified from bovine brain as described previously (Hamel, et al., Separation of active tubulin and microtubule-associated proteins by ultracentrifugation and isolation of a component causing the formation of microtubule bundles, Biochemistry 1984, 23, 4173-4184). Reaction mixtures (0.24 mL during preincubation, 0.25 mL during incubation, with all concentrations referring to the final volume) contained 0.8 M monosodium glutamate (taken from 2.0 M stock solution adjusted to pH 6.6 with Hcl), 1.0 mg/mL (10 μM) tubulin, 4% (v/v) dimethyl sulfoxide, and varying concentrations of drug. Samples were incubated for 15 min at 30° C. and chilled on ice. GTP, required for polymerization, was added in 10 μL to a final concentration of 0.4 mM. Samples were transferred to cuvettes held at 0° C. by electronic temperature controllers in GILFORD model 250 recording spectrophotometers. Baselines were established, and the reaction was initiated by a jump (approximately 1 min) to 30° C. Extent of assembly after 20 min was the parameter used to determine IC50 values. […] In most experiments, four spectrophotometers were used, with two control reaction mixtures.

[3] = Solubility in distilled water; type: physicochemical; conditions: distilled water at 25° C.
Description: The deprotected phosphate (0.44 g, 1.10 mmol) was dissolved in anhydrous methanol (15 mL) and sodium methoxide ([…], 2.20 mmol) was added at room temperature. The cloudy solution was stirred for 20 hours and the reaction mixture was concentrated to a white solid that was washed with 2-propanol and recrystallized (3×) from water-acetone. The phenstatin prodrug (3d, 0.38g, 78% yield) was collected by filtration and found to give; LRFAB m/z 443.02 (M+H+), calculated 443.048, EIMS m/z (peak height) 318 (100%, M+—PO3Na2+H), 303 (12%), 195 (20%), 151 (23%); ^1H-NMR (D2O) δH 7.644 (1H, t, J2/61.8 Hz, H-2), 7.366 (1H, dd, J6/2 1.8 Hz, J6/58.5 Hz, H-6), 7.006 (1H, d, J5/6 8.5 Hz, H-5), 6.933 (2H, s, H-2′, 6′), 3.844 (3H, s, 4′-OCH3), 3.748 (6H, s, 3′, 5′-OCH3) 3.734 (3H, s, 4OCH3); ^13C-NMR (D2O, reference to CDCl3) δC 193.5 (C═O), 151.1; and ^31P-NMR (D2O, decoupled, […]) δP −1.965.

CNS U251 = test: Human cancer cell line inhibition, CNS U251; type: cell-based; conditions: U-251
Source text: as §1

pharynx FADU = test: Human cancer cell line inhibition, pharynx FADU; type: cell-based
Source text: as §1

prostate DU-145 = test: Human cancer cell line inhibition, prostate DU-145; type: cell-based
Source text: as §1

[4] = mean over NCI 60 cell-line panel, tested in triplicate
[5] = Homo sapiens, mean over NCI 60 cell-line panel, tested in triplicate

Compound	Inhibition of colchicine binding % inhibition (tubulin) [%]	IC50 (bovine brain tubulin) [µM]	activity against tubulin / in inhibiting assembly (in words) (bovine brain tubulin)	melting point [°C]	other results
COc1ccc(/C=C\c2cc(OC)c(OC)c(OC)c2)cc1O [Compound 1b, combretastatin A-4, reference compound]	97				
COc1ccc(/C=C\c2cc(OC)c(OC)c(OC)c2)cc1OP(=O)([O-])[O-].[Na+].[Na+] [Compound 1d, combretastatin A4 sodium phosphate, reference compound]	4	> 80	totally inactive		GI50 [1, 4]: 0.0128 µM; GI50 [2]: 0.0004 µg/mL; GI50 (OVCAR-3): 0.023 µg/mL; GI50 (SF-295): 0.036 µg/mL; GI50 (A498): 0.041 µg/mL; GI50 (NCI-H460): 0.029 µg/mL; GI50 (KM20L2): 0.34 µg/mL; GI50 (SK-MEL-5): 0.041 µg/mL
COc1ccc(C=Cc2cc(OC)c(OC)c(OC)c2)cc1 [Compound 1e, reference compound]	97	1.3 ± 0.2			
COc1ccc(C(=O)c2cc(OC)c(OC)c(OC)c2)cc1OP(=O)([O-])[O-].[Na+].[Na+] [Compound 3d, Disodium Phenstatin 3-O-phosphate]	37	21 ± 3	weak activity		GI50 [1, 4]: 0.0733 µM; GI50 [2]: <0.001 µg/mL; GI50 (OVCAR-3): 0.0025 µg/mL; GI50 (SF-295): 0.012 µg/mL; GI50 (A498): 0.05 µg/mL; GI50 (NCI-H460): 0.035 µg/mL; GI50 (KM20L2): 0.27 µg/mL; GI50 (SK-MEL-5): 0.0047 µg/mL; activity as an inhibitor of colchicine binding (in words) (tubulin): moderate activity; activity relative to phenstatin in colchicine binding assay (tubulin; relative to phenstatin 3b): about 40%; solubility [3]: 30 mg/mL
COc1ccc(C(=O)c2cc(OC)c(OC)c(OC)c2)cc1OC(C)=O [Compound 3e, Phenstatin Acetate]	71	3.5 ± 0.5		164 to 165	GI50 (CNS U251): 0.0039 µg/mL; G50 (pharynx FADU): 0.0055 µg/mL; GI50 (prostate DU-145): 0.0029 µg/mL
COc1cc(C(=O)c2ccc3c(c2)OCO3)cc(OC)c1OC [Compound 4a, 3,4,5-trimethoxy-3′,4′-methylenedioxybenzophenone]	0	15 ± 2	only weak activity	124 to 125	GI50 [1, 5]: 2.7 µM
COc1cc(C(=O)c2cc(C)cc(C)c2)cc(OC)c1OC [Compound 4b, 3,4,5-trimethoxy-3′,5′-dimethylbenzophenone]	7	11 ± 2		104 to 105	GI50 [1, 5]: 3.48 µM; further fold drop in activity against tubulin (bovine brain tubulin; relative to 4d): 3 fold
COc1ccc(C(=O)c2cc(OC)c(OC)c(OC)c2)cc1OC [Compound 4c, 3,3′,4,4′,5-pentamethoxybenzophenone]	1	15 ± 2			GI50 [1, 5]: 5.11 µM
COc1cc(OC)cc(C(=O)c2cc(OC)c(OC)c(OC)c2)c1 [Compound 4d, 3,3′,4,5,5′-pentamethoxybenzophenone]	58	3.6 ± 0.8		121 to 122	GI50 ([1]; Homo sapiens): 0.543 µM; fold less potent than phenstatin in inhibiting tubulin polymerization (bovine brain tubulin; relative to phenstatin 3b): 3-4 fold
COc1cc(C(=O)c2cc(Cl)cc(Cl)c2)cc(OC)c1OC [Compound 4e, 3,5-dichloro-3′,4′,5′-trimethoxybenzophenone]			almost inert	131 to 132	GI50 [1, 5]: 5.12 µM
COc1cc(C(=O)c2cc(F)cc(F)c2)cc(OC)c1OC [Compound 4f, 3,5-difluoro-3′,4′,5′-trimethoxybenzophenone]	0	39 ± 7	almost inert	121 to 123	GI50 ([1]; Homo sapiens): 4.94 µM
COc1ccc(Cc2cc(OC)c(OC)c(OC)c2)cc1O [Compound 7a, reference compound]	65	3.3 ± 0.5			
COc1ccc(Cc2cc(OC)c(OC)c(OC)c2)cc1 [Compound 7b, reference compound]	56	4.4 ± 0.2			
COc1ccc(CCc2cc(OC)c(OC)c(OC)c2)cc1O [Compound 8a, reference compound]	77	2.1 ± 0.3			
COc1ccc(CCc2cc(OC)c(OC)c(OC)c2)cc1 [Compound 8b, reference compound]	54	3.2 ± 0.3			
